Laboratory results: US20150307520A1, “NOVEL HETEROARYL AND HETEROCYCLE COMPOUNDS, COMPOSITIONS AND METHODS THEREOF” (HUTCHISON MEDIPHARMA LIMITED, priority 2012, published 2015)

Experiments:
Format in all cases: biochemical
[1] = biological target: p110γ (Homo sapiens, UniProt P48736); experiment: Transcreener KINASE Assay, kinase inhibition of p110γ; conditions: for PI3Kγ IH % @ 1 uM: 1 uM test compound; for IC50: read-out: PI3Kγ IC50
In short: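 Recombinant PI3K isoforms (p85α complexes or p110γ alone) reacted 80 min at room temperature, then ADP detection mix added for 60 min. ADP formation read by far-red competitive fluorescence polarization immunoassay; IC50 by curve fitting.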

[2] = biological target: p110β/p85α (Homo sapiens, UniProt P42338); experiment: Transcreener KINASE Assay, kinase inhibition of p110β/p85α; conditions: for PI3Kβ IH % @ 1 uM: 1 uM test compound; for IC50: read-out: PI3Kβ IC50
In short: (§1)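 Recombinant PI3K/p85α heterodimers were incubated with compound (2% DMSO final) for 80 min at room temperature in 50 mM HEPES, 100 mM NaCl, 1 mM EGTA, 0.03% CHAPS, 3 mM MgCl2, 1 mM DTT, with substrate added as a 30 uM PIP2/10 uM ATP mix. ADP was detected by competitive fluorescence polarization immunoassay.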

[3] = biological target: p110δ/p85α (Homo sapiens, UniProt O00329); experiment: Transcreener KINASE Assay, kinase inhibition of p110δ/p85α; conditions: for PI3Kδ IH % @ 1 uM: 1 uM test compound; for IC50: read-out: PI3Kδ IC50
In short: as §1

Chain of p110δ/p85α (O00329 whole entry): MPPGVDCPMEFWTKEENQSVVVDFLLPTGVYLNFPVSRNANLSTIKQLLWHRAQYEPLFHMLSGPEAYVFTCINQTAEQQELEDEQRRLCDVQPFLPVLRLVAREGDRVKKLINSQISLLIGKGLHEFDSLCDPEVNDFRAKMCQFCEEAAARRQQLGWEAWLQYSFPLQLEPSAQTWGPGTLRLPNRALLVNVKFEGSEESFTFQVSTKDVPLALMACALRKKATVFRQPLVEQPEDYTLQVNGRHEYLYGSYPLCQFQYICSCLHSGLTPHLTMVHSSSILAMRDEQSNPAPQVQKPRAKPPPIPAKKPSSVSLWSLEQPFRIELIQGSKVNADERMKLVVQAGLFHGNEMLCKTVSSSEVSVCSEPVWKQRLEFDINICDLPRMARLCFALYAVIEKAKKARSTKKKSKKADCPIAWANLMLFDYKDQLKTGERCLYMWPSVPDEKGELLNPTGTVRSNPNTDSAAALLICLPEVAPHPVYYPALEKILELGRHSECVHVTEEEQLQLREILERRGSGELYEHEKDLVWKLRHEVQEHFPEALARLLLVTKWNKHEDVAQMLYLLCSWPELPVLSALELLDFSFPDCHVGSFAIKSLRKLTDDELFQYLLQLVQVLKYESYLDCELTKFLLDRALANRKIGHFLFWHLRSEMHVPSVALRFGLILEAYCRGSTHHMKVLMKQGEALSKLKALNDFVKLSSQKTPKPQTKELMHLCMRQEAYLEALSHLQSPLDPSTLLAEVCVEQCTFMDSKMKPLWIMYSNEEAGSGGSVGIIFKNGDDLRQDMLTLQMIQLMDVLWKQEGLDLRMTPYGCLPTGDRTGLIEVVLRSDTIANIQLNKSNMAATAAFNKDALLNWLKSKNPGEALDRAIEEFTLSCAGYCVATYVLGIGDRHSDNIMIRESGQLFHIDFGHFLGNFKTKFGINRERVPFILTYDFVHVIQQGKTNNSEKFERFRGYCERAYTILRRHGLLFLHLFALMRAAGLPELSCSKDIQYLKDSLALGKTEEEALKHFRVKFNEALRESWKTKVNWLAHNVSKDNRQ
Chain of p110δ/p85α (P27986 whole entry partner): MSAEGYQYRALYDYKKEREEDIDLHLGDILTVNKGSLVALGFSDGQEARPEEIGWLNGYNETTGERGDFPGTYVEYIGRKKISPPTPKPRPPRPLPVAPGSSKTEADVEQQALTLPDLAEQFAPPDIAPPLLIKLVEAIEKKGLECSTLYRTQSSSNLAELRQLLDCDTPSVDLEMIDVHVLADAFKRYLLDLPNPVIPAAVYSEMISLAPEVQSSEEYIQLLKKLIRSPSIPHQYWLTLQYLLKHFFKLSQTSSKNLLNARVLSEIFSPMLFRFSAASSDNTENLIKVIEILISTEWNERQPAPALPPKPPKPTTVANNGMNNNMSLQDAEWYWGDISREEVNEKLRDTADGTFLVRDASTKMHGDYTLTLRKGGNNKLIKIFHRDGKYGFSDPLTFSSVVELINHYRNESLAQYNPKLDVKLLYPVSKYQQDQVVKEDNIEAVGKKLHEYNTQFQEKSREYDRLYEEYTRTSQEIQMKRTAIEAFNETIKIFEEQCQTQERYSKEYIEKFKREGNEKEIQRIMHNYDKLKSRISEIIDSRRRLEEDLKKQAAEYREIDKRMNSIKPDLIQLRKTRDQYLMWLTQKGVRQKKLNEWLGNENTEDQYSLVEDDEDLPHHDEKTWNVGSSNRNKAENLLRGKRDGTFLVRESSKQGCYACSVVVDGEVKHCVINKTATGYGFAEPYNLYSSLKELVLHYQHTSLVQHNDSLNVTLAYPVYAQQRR
Chain of p110γ (P48736 whole entry, canonical isoform): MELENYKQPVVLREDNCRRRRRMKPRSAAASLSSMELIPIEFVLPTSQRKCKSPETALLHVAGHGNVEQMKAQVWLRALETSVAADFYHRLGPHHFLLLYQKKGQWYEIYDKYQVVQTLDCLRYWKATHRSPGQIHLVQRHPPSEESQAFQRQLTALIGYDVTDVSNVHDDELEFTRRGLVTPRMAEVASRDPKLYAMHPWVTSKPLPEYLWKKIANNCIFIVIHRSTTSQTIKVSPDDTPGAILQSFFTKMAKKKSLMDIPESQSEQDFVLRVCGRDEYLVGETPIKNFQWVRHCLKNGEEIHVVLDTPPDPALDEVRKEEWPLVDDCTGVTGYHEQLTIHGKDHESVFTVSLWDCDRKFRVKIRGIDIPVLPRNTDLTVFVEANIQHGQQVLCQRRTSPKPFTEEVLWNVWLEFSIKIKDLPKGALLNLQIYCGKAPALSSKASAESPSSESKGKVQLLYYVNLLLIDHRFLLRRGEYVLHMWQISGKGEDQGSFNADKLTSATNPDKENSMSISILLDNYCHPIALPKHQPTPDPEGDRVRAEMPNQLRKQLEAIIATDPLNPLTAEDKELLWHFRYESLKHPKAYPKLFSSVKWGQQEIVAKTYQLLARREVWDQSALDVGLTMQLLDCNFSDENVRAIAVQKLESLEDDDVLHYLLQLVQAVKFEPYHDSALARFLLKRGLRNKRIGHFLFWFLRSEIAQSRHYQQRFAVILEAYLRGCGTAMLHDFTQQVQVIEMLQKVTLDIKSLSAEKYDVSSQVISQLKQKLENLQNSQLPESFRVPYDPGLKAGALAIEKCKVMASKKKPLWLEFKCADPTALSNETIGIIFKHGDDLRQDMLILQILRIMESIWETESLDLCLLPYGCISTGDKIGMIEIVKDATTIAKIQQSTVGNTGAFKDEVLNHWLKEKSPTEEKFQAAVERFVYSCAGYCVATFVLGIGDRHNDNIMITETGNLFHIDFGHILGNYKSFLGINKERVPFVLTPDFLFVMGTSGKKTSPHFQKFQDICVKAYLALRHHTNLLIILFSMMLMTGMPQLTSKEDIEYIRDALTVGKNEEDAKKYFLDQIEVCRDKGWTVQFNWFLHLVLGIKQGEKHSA
Chain of p110β/p85α (P42338 whole entry): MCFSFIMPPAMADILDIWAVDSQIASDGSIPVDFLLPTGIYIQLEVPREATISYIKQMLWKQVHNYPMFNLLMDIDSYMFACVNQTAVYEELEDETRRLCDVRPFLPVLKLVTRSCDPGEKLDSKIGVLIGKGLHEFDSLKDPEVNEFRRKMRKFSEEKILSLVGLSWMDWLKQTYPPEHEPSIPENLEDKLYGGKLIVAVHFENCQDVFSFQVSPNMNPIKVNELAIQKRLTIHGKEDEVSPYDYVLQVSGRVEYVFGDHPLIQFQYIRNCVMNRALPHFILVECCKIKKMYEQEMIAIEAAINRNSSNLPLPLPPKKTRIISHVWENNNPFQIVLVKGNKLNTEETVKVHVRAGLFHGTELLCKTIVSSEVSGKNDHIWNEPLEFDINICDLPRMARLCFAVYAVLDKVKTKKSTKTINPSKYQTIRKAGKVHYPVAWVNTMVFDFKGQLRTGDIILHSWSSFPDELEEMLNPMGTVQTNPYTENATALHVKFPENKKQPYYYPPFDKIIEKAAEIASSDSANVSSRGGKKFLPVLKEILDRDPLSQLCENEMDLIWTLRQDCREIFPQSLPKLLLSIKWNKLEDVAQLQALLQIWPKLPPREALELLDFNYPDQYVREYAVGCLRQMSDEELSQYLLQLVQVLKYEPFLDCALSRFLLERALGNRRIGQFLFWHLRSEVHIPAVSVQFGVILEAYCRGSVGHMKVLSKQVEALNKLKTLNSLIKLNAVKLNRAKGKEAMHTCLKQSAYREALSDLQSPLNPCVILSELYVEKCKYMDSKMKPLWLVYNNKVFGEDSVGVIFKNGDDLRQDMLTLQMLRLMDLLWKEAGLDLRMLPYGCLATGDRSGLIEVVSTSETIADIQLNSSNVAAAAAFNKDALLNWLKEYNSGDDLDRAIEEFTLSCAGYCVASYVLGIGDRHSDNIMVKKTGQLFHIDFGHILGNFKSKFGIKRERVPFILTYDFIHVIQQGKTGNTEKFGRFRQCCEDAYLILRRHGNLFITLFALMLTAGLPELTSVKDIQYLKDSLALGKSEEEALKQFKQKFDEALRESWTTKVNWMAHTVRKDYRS
Chain of p110β/p85α (P27986 2-724 partner): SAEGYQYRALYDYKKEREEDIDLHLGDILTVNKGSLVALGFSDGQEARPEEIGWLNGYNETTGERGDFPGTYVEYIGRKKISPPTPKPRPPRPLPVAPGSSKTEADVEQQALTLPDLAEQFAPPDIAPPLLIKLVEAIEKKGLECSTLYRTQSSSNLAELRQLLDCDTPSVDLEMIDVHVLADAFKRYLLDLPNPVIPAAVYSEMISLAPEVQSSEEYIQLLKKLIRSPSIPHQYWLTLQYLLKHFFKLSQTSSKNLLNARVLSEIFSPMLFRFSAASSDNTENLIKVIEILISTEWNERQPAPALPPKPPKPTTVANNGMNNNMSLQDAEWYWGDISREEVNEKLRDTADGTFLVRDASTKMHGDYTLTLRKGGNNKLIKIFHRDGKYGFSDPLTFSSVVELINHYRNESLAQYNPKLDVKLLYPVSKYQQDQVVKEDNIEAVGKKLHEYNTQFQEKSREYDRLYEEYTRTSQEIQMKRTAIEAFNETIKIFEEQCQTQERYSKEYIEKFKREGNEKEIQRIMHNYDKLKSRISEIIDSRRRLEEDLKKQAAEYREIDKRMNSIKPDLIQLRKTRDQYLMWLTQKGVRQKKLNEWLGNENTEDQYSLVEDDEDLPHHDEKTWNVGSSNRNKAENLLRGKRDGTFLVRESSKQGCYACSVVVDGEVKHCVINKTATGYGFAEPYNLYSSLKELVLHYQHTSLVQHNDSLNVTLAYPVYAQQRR

SMILES	PI3Kγ IH % @ 1 uM [1] [%]	IC50 [1] [nM]	PI3Kβ IH % @ 1 uM [2] [%]	PI3Kδ IH % @ 1 uM [3] [%]	IC50 [3] [nM]	IC50 [2] [nM]
C[S@+]([O-])c1c[nH]c2ncnc(N3C[C@@H](F)C[C@H]3c3nn4ccc(Cl)c4c(=O)n3-c3cccc(F)c3)c12 [Compound 392, 5-chloro-2-((2S,4S)-4-fluoro-1-(5-((S)-methylsulfinyl)-7H-pyrrolo[2,3-d]pyrimidin-4-yl)pyrrolidin-2-yl)-3-(3-fluorophenyl)pyrrolo[2,1-f][1,2,4]triazin-4(3H)-one]	89.1	62	67.2	95.9	11	
Nc1ccc(-c2c[nH]c3ncnc(N4CC[C@H]4c4nn5ccc(F)c5c(=O)n4-c4ccccc4)c23)cn1 [Compound 183]	>100	5	77.2	>100		331
C[C@H]1CN(c2nc(N)nc(N)c2C#N)C1c1nn2ccc(Cl)c2c(=O)n1-c1cccc(F)c1 (some centres unmarked) [Compound 504]	>100	2	75.6	>100	2	121
N#Cc1c[nH]c2ncnc(N3C[C@@H](F)C[C@H]3c3nn4ccc(Cl)c4c(=O)n3-c3ccccn3)c12 [Compound 345]	97.1	4	93.2	>100	1	28
N#Cc1ncc(-c2c[nH]c3ncnc(N4CC[C@H]4c4nn5ccc(F)c5c(=O)n4-c4ccccc4)c23)cn1 [Compound 184]	98.4	8	>100	>100	0.5	38
CC(=O)c1cnc(N)nc1N1CC[C@H]1c1nn2c(C)cc(Cl)c2c(=O)n1-c1ccccc1 [Compound 503]	63.0		6.2	49.2		
CC(C)Cn1c([C@@H]2CCN2c2nc(N)ncc2C#N)nn2ccc(Cl)c2c1=O [Compound 260]	90.9	163	39.6	98.0	40	
CC(Nc1ncnc2[nH]cc(S(C)(=O)=O)c12)c1cc2ncc(Cl)n2c(=O)n1-c1ccccc1 (centres unmarked) [Compound 286]	56.2		25.2	88.8	29	
CC(Nc1ncnc2[nH]cc(F)c12)c1cn2ccc(Cl)c2c(=O)n1-c1ccccc1 (centres unmarked) [Compound 270]	89.7	22	87.4	>100	12	174
COc1ncc(-c2c[nH]c3ncnc(N4CC[C@H]4c4nn5ccc(F)c5c(=O)n4-c4ccccc4)c23)cn1 [Compound 181]	>100	4	95.9	>100		23
CS(=O)(=O)CCn1c([C@@H]2CCCN2c2ncnc3[nH]cnc23)nn2ccc(Cl)c2c1=O [Compound 372]	87.7	297	42.6	84.8	100	
CC(Nc1ncnc2[nH]cnc12)c1cc2ncc(Cl)n2c(=O)n1-c1ccccc1 (centres unmarked) [Compound 115, 7-(1-(9H-purin-6-ylamino)ethyl)-3-chloro-6-phenylimidazo[1,2-c]pyrimidin-5(6H)-one]	91.7	3	80.2	>100	2	143
C[S@@+]([O-])c1c[nH]c2ncnc(N3CC[C@H]3c3nn4ccc(Cl)c4c(=O)n3-c3ccccn3)c12 [Compound 391, 5-chloro-2-((S)-1-(5-((R)-methylsulfinyl)-7H-pyrrolo[2,3-d]pyrimidin-4-yl)azetidin-2-yl)-3-(pyridin-2-yl)pyrrolo[2,1-f][1,2,4]triazin-4(3H)-one]	90.5	129	0.1	91.4	185	
CC(Nc1ncnc2[nH]cc(S(C)(=O)=O)c12)c1cn2ccc(Cl)c2c(=O)n1-c1ccccc1 (centres unmarked) [Compound 269]	>100	93	38.1	94.7	147	
C[C@H]1CN(c2nc(N)ncc2C#N)[C@@H]1c1nn2ccc(C(F)(F)F)c2c(=O)n1-c1ccccc1 [Compound 490]	>100	15	33.4	96.6	54	
Cc1nc(N)nc(N2CC[C@H]2c2nn3c(C)cc(Cl)c3c(=O)n2-c2ccccc2)c1C#N [Compound 502]	66.4		33.6	66.2		

More lines, now with the values ahead:

PI3Kγ IH % @ 1 uM [1] [%]	IC50 [1] [nM]	PI3Kβ IH % @ 1 uM [2] [%]	PI3Kδ IH % @ 1 uM [3] [%]	IC50 [3] [nM]	IC50 [2] [nM]	SMILES
80.7	173	69.3	96.2	2		C[S@+]([O-])c1c[nH]c2ncnc(N3CCC[C@H]3c3nn4ccc(Cl)c4c(=O)n3-c3ccccn3)c12 [Compound 388, 5-chloro-2-((S)-1-(5-((S)-methylsulfinyl)-7H-pyrrolo[2,3-d]pyrimidin-4-yl)pyrrolidin-2-yl)-3-(pyridin-2-yl)pyrrolo[2,1-f][1,2,4]triazin-4(3H)-one]
>100		83.4	>100			C[C@H]1CCN(c2ncnc3[nH]cnc23)C1c1nn2ccc(Cl)c2c(=O)n1-c1ccccc1 (some centres unmarked) [Compound 234]
>100	21	80.2	91.7	6	66	O=c1c2c(Cl)ccn2nc([C@@H]2CCCN2c2ncnc3[nH]cnc23)n1-c1ccc(F)cc1 [Compound 41]
97.6	7	91.6	>100	21	125	O=c1c2c(Cl)ccn2nc([C@@H]2CCN2c2ncnc3[nH]cc(C4=NCCO4)c23)n1-c1ccccc1 [Compound 305]
>100	18	33.8	>100	14		C#Cc1cnc(N)nc1N1CCC[C@H]1c1nn2ccc(Cl)c2c(=O)n1-c1ccccc1 [Compound 238]
98.3	27	68.3	97.5	6		O=c1c2c(Cl)ccn2cc(C2CCCN2c2ncnc3[nH]cnc23)n1-c1ccccc1 (centres unmarked) [Compound 363, 3-(1-(9H-purin-6-yl)pyrrolidin-2-yl)-8-chloro-2-phenylpyrrolo[1,2-a]pyrazin-1(2H)-one]
92.3	151	28.2	>100	5		N#Cc1c(N)ncnc1N1CC(F)(F)C[C@H]1c1nn2ccc(Cl)c2c(=O)n1-c1ccccc1 [Compound 141]
>100	10	87.8	98.0	1	65	N#Cc1c[nH]c2ncnc(N3CC(=O)C[C@H]3c3nn4ccc(Cl)c4c(=O)n3-c3ccccc3)c12 [Compound 380, (S)-4-(2-(5-chloro-4-oxo-3-phenyl-3,4-dihydropyrrolo[2,1-f][1,2,4]triazin-2-yl)-4-oxopyrrolidin-1-yl)-7H-pyrrolo[2,3-d]pyrimidine-5-carbonitrile]
>100	7	91.9	>100	1	266	N#Cc1c(N)nc(N)nc1N1CCC1c1nn2ccc(Cl)c2c(=O)n1-c1ccccc1 (centres unmarked) [Compound 482]
89.6	30	53.5	94.2	12		C[S+]([O-])c1c[nH]c2ncnc(N3CCC[C@H]3c3nn4ccc(Cl)c4c(=O)n3-c3ccc(F)cc3)c12 (some centres unmarked) [Compound 209]
80.9	172	71.9	100		795	Cc1ccn2nc([C@@H]3CCCN3c3ncnc(N)c3Cl)n(-c3ccccc3)c(=O)c12 [Compound 45]
88.3	239	37.1	98.2	13		O=c1c2c(Cl)ccn2nc([C@@H]2CC(F)(F)CN2c2ncnc3[nH]cnc23)n1-c1ccccc1 [Compound 57]
69.5		17.0	48.4			Nc1nc(N2CCC[C@H]2c2nn3ccc(Cl)c3c(=O)n2-c2ccccc2)c2ncccc2n1 [Compound 335]
96.3	45	39.8	98.0	34		Cc1nc(N)nc(N2CC[C@H]2c2nn3ccc(Cl)c3c(=O)n2-c2ccccc2)c1Cl [Compound 377, (S)-2-(1-(2-amino-5-chloro-6-methylpyrimidin-4-yl)azetidin-2-yl)-5-chloro-3-phenylpyrrolo[2,1-f][1,2,4]triazin-4(3H)-one]
94.6	1	76.1	94.2	12		Cc1nc(N)nc(N2CC[C@H]2c2nn3ccc(Cl)c3c(=O)n2-c2ccc(F)cc2)c1C#N [Compound 442]
